Counter-ions that a name gives are not always drawn.

For one assay, the system named is α-glucosidase. Description: α-Glucosidase inhibition assay (PNPG method). In kind it is biochemical. To be noted: for IC50, inhibition of α-glucosidase: mean ± SD, PNPG method, 5 and 6 tested as epimeric mixtures. As to the method: The inhibitory activity of the obtained compounds on α-glucosidase was evaluated using the method mentioned in previous studies with minor modifications. […] Subsequently, 50 μL of 5.0 mM p-Nitrophenyl α-D-glucopyranoside (pNPG, dissolved in 0.1 M PB, pH 6.8) was added to the mixture. After incubation at 37 °C for 30 min, the reaction was stopped by adding 80 μL of 0.2 M sodium carbonate solution (dissolved in ultrapure water) to the reaction system. The absorbance value was measured at 405 nm using a microplate reader. […] Ac: Absorbance of the reaction system containing 20 μL PBS, 50 μL α-glucosidase, and 50 μL pNPG.

A short description of assay [1]: DPPH radical scavenging (antioxidant) assay. As to conditions: for IC50, clearance rate of DPPH: mean ± SD, 5 and 6 tested as epimeric mixtures. As to the method:
The activity screening of 18 compounds isolated from O. ensiformis was carried out using 96-well plates and an enzyme labeler with DPPH methanol solution as substrate (0.15 mmol/L) and sodium ascorbate as positive control. The gradient mass concentration of the samples to be tested was 200, 100, 50, 25, 12.5 μg/mL and then divided into a sample group (100 μL DPPH solution + 100 μL sample, A), a sample control group (100 μL methanol + 100 μL sample, A0), and a negative control (100 μL DPPH solution + 100 μL methanol, A1). The samples to be tested were fully reacted under light-avoiding conditions, and the OD values were determined at 517 nm after 30 min [23]. The experiments were performed three times in parallel, and the DPPH radical scavenging rate was calculated. The scavenging rate of DPPH radical was calculated according to the following equation [24].E = [1 − (A − Aa)/Ab] × 100% A:100 μL of test compounds or L-Ascorbic Acid Sodium Salt and 100 μL of DPPH. Aa: 100 μL of test compounds or L-Ascorbic Acid Sodium Salt and 100 μL of MeOH. Ab: 100 μL of MeOH and 100 μL of DPPH.

For `C=C(C)C(O)Cc1cc(C(=O)OC(C)C(C)(O)C(=O)O)cc(CC=C(C)C)c1O` (centres unmarked) [Compound 5, Oberoniaensiformisin E], in the assay with α-glucosidase, the “inhibitory activity against α-glucosidase (in words)” value (shortened to “inhibitory activity”) is “weak” and the “IC50, inhibition of α-glucosidase” value was found to be 106.10 ± 2.12 µg/mL. Regarding `C=C(C)C(O)Cc1cc(C(=O)O[C@@H]2CC(C(=O)O)=C[C@@H](O)[C@H]2O)cc(CC=C(C)C)c1O` (some centres unmarked) [Compound 6, oberoniaensiformisin F], in assay [1], the “DPPH radical scavenging activity” value is on record as > 50% and the “IC50, clearance rate of DPPH” value turned out to be 173.76 ± 23.92 µg/mL. In addition, in the assay on α-glucosidase, the “inhibitory activity” value is “moderate” and the “IC50, inhibition of α-glucosidase” value was 58.07 ± 6.22 µg/mL. Consider `C=C(C)C(O)Cc1cc(C(=O)O)cc2c1OC(C)(C)C=C2` (centres unmarked) [Compound 10, liparacid A], for which the “inhibitory activity” value in the assay with α-glucosidase is listed as “no significant activity”. Same read-out and setting: under `C=C(C)C(O)Cc1cc(C(=O)O)cc(CCC(C)(C)O)c1O` (centres unmarked) [Compound 11, oberoniamyosurusin E] stands “no significant activity”.

On to `CC(C)=CCc1cc(C(=O)O)cc(CC=C(C)C)c1O` [Compound 12, nervogenic acid], for which, in assay [1], the “DPPH radical scavenging activity” value is listed as > 50% and the “IC50, clearance rate of DPPH” value is 185.36 ± 1.96 µg/mL. Further, in the assay on α-glucosidase, the “inhibitory activity” value is “strong” and the “IC50, inhibition of α-glucosidase” value worked out at 34.03 ± 0.16 µg/mL. In the case of `CC(C)=CCc1cc(C(=O)O[C@@H]2CC(C(=O)O)=C[C@@H](O)[C@H]2O)cc2c1OC(C)(C)C=C2` [Compound 13, oberoniamyosurusin L], in the assay on α-glucosidase, the “inhibitory activity” value was “moderate” and the “IC50, inhibition of α-glucosidase” value turned out to be 86.53 ± 1.08 µg/mL. The corresponding values for `CC(C)=CCc1cc(C(=O)O)cc2c1OC(C(C)(C)O)C2` (centres unmarked) [Compound 15, oberoniamyosurusins I] are “strong” and 38.80 ± 4.43 µg/mL. For `CC(C)(O)CCc1cc(C(=O)O)cc2c1OC(C)(C)C=C2` [Compound 16, 1iparacids C], in the assay on α-glucosidase, the “inhibitory activity” value is reported as “no significant activity”. Same read-out and setting: to `CC(C)(O)CCc1cc(C(=O)O)cc(CCC(C)(C)O)c1O` [Compound 17, oberoniamyosurusin F] belongs “no significant activity”; to `C=C(C)C(O)Cc1cc(C(=O)O)cc(CC(O)C(=C)C)c1O` (centres unmarked) [Compound 18, liparacid B], “no significant activity”. In the case of `O=C1O[C@H]([C@@H](O)CO)C(O)=C1O` [L-ascorbate, L-Ascorbic Acid Sodium Salt, reference compound], in assay [1], the “IC50, clearance rate of DPPH” value was found to be 2.37 ± 0.11 µg/mL.

Values taken from article PMC12114510, “Antimicrobial, Antioxidant, and α-Glucosidase-Inhibitory Activities of Prenylated p-Hydroxybenzoic Acid Derivatives from Oberonia ensiformis” (Molecules, 2025).
